From patent publication US10173968B2, “Bishydrazone-based antifungal agents” (University of Kentucky Research Foundation, priority 2016, dated 2019)
Several values for one entry are separate records, joined by “and”; a condition that tells them apart may be missing. Equal entries are not always repeated. Where two headings read alike, the source gives them in different places.

Columns and labels:
A. baumannii ATCC 19606 = assay: Antibacterial MIC, double-dilution method; assay type: cell-based; details: Acinetobacter baumannii, ATCC19606
Experimental: (§1) MIC values were determined against a variety of Gram-positive (strains A-D) and Gram-negative (E-J) bacterial and mycobacterial (K) strains using the double-dilution method, as previously published. Preliminary screening was performed using 500 μM of each compound.

B. subtilis 168 = assay: Antibacterial MIC, double-dilution method; assay type: cell-based; details: Bacillus subtilis, strain A, Gram-positive
Experimental: as §1

E. coli MC1061 = assay: Antibacterial MIC, double-dilution method; assay type: cell-based; details: Escherichia coli
Experimental: as §1

K. pneumoniae ATCC 27736 = assay: Antibacterial MIC, double-dilution method; assay type: cell-based; details: Klebsiella pneumoniae, ATCC27736, strain H, Gram-negative, read-out: MIC
Experimental: as §1

[1] = tested on: L. monocytogenes ATCC 19115; assay: Antibacterial MIC, double-dilution method; assay type: cell-based; details: Listeria monocytogenes, ATCC19115
Experimental: as §1

MRSA = assay: Antibacterial MIC, double-dilution method; assay type: cell-based; details: Staphylococcus aureus
Experimental: as §1

S. enterica ATCC 14028 = assay: Antibacterial MIC, double-dilution method; assay type: cell-based; details: Salmonella enterica, ATCC14028
Experimental: as §1

VRE = assay: Antibacterial MIC, double-dilution method; assay type: cell-based; details: Enterococcus
Experimental: as §1

C. albicans ATCC 1003 = assay: Antifungal MIC, CLSI M27-A3 microbroth dilution; assay type: cell-based, Candida albicans; details: Candida albicans, ATCC1003, read-out: MIC
Experimental: (§2) In vitro MIC testing was performed according to the CLSI M27-A3 standard microbroth dilution methodology for the susceptibility testing of yeasts with minor modifications.

C. albicans ATCC 10231 = assay: Antifungal MIC, CLSI M27-A3 microbroth dilution; assay type: cell-based, Candida albicans; details: Candida albicans, ATCC10231, C. albicans ATCC 10231, resistant to FLC, ITC, and VOR, read-out: MIC
Experimental: as §2

C. albicans ATCC 1237 = assay: Antifungal MIC, CLSI M27-A3 microbroth dilution; assay type: cell-based, Candida albicans; details: ITC, and VOR
Experimental: as §2

C. albicans ATCC 2310 = assay: Antifungal MIC, CLSI M27-A3 microbroth dilution; assay type: cell-based, Candida albicans; details: Candida albicans, ATCC2310, C. albicans ATCC 2310, susceptible to FLC, ITC, and VOR, read-out: MIC
Experimental: as §2

C. albicans ATCC 2876 = assay: Antifungal MIC, CLSI M27-A3 microbroth dilution; assay type: cell-based, Candida albicans; details: Candida albicans, ATCC2876, C. albicans ATCC 2876, susceptible to FLC, ITC, and VOR, read-out: MIC
Experimental: as §2

C. albicans ATCC 64124 = assay: Antifungal MIC, CLSI M27-A3 microbroth dilution; assay type: cell-based, Candida albicans; details: Candida albicans, ATCC64124, C. albicans ATCC 64124, resistant to FLC, ITC, and VOR, read-out: MIC
Experimental: as §2

C. albicans ATCC 90819 = assay: Antifungal MIC, CLSI M27-A3 microbroth dilution; assay type: cell-based, Candida albicans; details: Candida albicans, ATCC90819, C. albicans ATCC 90819, resistant to FLC, ITC, and VOR, read-out: MIC
Experimental: as §2

[2] = tested on: C. albicans strains (panel of seven); assay: Antifungal MIC, summary over the panel; assay type: cell-based, Candida albicans; details: for MIC: Candida albicans, all, most or majority of the fungal strains, read-out: MIC, span over C. albicans strains
Experimental: In vitro MIC testing was performed according to the CLSI M27-A3 standard microbroth dilution methodology for the susceptibility testing of yeasts with minor modifications. […] MIC values were read visually for all tested compounds, and the endpoint was determined as the minimum concentration of compound that yielded complete inhibition relative to growth control.

E. cloacae ATCC 13047 = assay: Antibacterial MIC, double-dilution method; assay type: cell-based; details: Enterobacter cloacae, ATCC13047, strain F, Gram-negative, read-out: MIC
Experimental: as §1

M. smegmatis MC2-155 = assay: Antibacterial MIC, double-dilution method; assay type: cell-based; details: Mycolicibacterium smegmatis, MC2155, strain K, mycobacterial, read-out: MIC
Experimental: as §1

P. aeruginosa ATCC 27853 = assay: Antibacterial MIC, double-dilution method; assay type: cell-based; details: Pseudomonas aeruginosa, ATCC27853, strain I, Gram-negative, read-out: MIC
Experimental: as §1

[3] = strain E, Gram-negative, converted from μM, read-out: MIC
[4] = strain E, Gram-negative, range 0.5 to 500 μM, read-out: MIC
[5] = strain B, Gram-positive, converted from μM, read-out: MIC
[6] = strain B, Gram-positive, range 0.5 to 500 μM, read-out: MIC
[7] = strain C, Gram-positive, converted from μM, read-out: MIC
[8] = strain C, Gram-positive, range 0.5 to 500 μM, read-out: MIC
[9] = strain J, Gram-negative, converted from μM, read-out: MIC
[10] = strain J, Gram-negative, range 0.5 to 500 μM, read-out: MIC
[11] = strain D, Gram-positive, converted from μM, read-out: MIC
[12] = strain D, Gram-positive, range 0.5 to 500 μM, read-out: MIC
[13] = C. albicans ATCC 1003, converted from μg/mL
[14] = Candida albicans, ATCC1237, C. albicans ATCC 1237, resistant to FLC, converted from μg/mL, read-out: MIC
[15] = Candida albicans, ATCC1237, C. albicans ATCC 1237, resistant to FLC, read-out: MIC
[16] = strain G, Gram-negative, converted from μM, read-out: MIC
[17] = strain G, Gram-negative, range 0.5 to 500 μM, read-out: MIC

| SMILES | MIC (A. baumannii ATCC 19606; [4]) [µM] | MIC (B. subtilis 168; converted from μM) [µg/mL] | MIC (B. subtilis 168; range 0.5 to 500 μM) [µM] | MIC (K. pneumoniae ATCC 27736; converted from μM) [µg/mL] | MIC (K. pneumoniae ATCC 27736; range 0.5 to 500 μM) [µM] | MIC [1, 6] [µM] | MIC (MRSA; [8]) [µM] | MIC (S. enterica ATCC 14028; [10]) [µM] | MIC (VRE; [12]) [µM] | MIC (C. albicans ATCC 1003; [13]) [µM] | MIC (C. albicans ATCC 1003) [µg/mL] | MIC (C. albicans ATCC 10231; converted from μg/mL) [µM] | MIC (C. albicans ATCC 10231) [µg/mL] | MIC (C. albicans ATCC 1237; [14]) [µM] | MIC (C. albicans ATCC 1237; [15]) [µg/mL] | MIC (C. albicans ATCC 2310; converted from μg/mL) [µM] | MIC (C. albicans ATCC 2310) [µg/mL] | MIC (C. albicans ATCC 2876; converted from μg/mL) [µM] | MIC (C. albicans ATCC 2876) [µg/mL] | MIC (C. albicans ATCC 64124; converted from μg/mL) [µM] | other results |
| --- | --- | --- | --- | --- | --- | --- | --- | --- | --- | --- | --- | --- | --- | --- | --- | --- | --- | --- | --- | --- | --- |
| C/C(=N\NC(=N)N)c1ccc(-c2ccc(/C(C)=N/Nc3ccccc3Cl)cc2)cc1.Cl [Compound 8Aa, (E)-2-(1-(4′-((E)-1-(2-(2-chlorophenyl)hydrazono)ethyl)-[1,1′-biphenyl]-4-yl)ethylidene)hydrazine-1-carboximidamide hydrochloride] | 62.5 | 26.6 to 53.3 | 62.5 to 125 | 26.6 to 53.3 | 62.5 to 125 | 62.5 to 125 | 125 | 62.5 to 125 | 3.9 | 34.3 | 15.6 | 34.3 | 15.6 | 34.3 | 15.6 | 34.3 | 15.6 | 34.3 | 15.6 | 68.7 | MIC (A. baumannii ATCC 19606; [3]): 26.6 µg/mL; MIC (E. coli MC1061): 213 µg/mL and 500 µM; MIC [1, 5]: 26.6 to 53.3 µg/mL; MIC (MRSA; [7]): 53.3 µg/mL; MIC (S. enterica ATCC 14028; [9]): 26.3 to 53.3 µg/mL; MIC (VRE; [11]): 1.7 µg/mL; MIC (C. albicans ATCC 64124): 31.3 µg/mL; MIC (C. albicans ATCC 90819; converted from μg/mL): 34.3 µM; MIC (C. albicans ATCC 90819): 15.6 µg/mL; MIC [2]: 7.8 to 15.6 µg/mL; melting point: > 380 °C |
| Cl.N=C(N)N/N=C/c1ccc(-c2ccc(/C=N/Nc3ccccc3Br)cc2)cc1 [Compound 7Ab, (E)-2-((4′-((E and Z)-(2-(2-Bromophenyl)hydrazono)methyl)-[1,1′-biphenyl]-4-yl)methylene)hydrazine-1-carboximidamide monohydrochloride] | > 500 | > 235 | > 500 | > 235 | > 500 | 2 | 2 | > 500 | 2 | 4.1 | 2 | 4.1 | 2 | 8.3 | 3.9 | 8.3 | 3.9 | 8.3 | 3.9 | 8.3 | MIC (A. baumannii ATCC 19606; [3]): > 235 µg/mL; MIC (E. cloacae ATCC 13047; converted from μM): > 235 µg/mL; MIC (E. cloacae ATCC 13047; range 0.5 to 500 μM): > 500 µM; MIC (E. coli MC1061; [16]): > 235 µg/mL; MIC (E. coli MC1061; [17]): > 500 µM; MIC [1, 5]: 0.9 µg/mL; MIC (M. smegmatis MC2-155; converted from μM): 1.8 µg/mL; MIC (M. smegmatis MC2-155; range 0.5 to 500 μM): 3.9 µM; MIC (MRSA; [7]): 0.9 µg/mL; MIC (P. aeruginosa ATCC 27853; converted from μM): > 235 µg/mL; MIC (P. aeruginosa ATCC 27853; range 0.5 to 500 μM): > 500 µM; MIC (S. enterica ATCC 14028; [9]): > 235 µg/mL; MIC (VRE; [11]): 0.9 µg/mL; MIC (C. albicans ATCC 64124): 3.9 µg/mL; MIC (C. albicans ATCC 90819; converted from μg/mL): 8.3 µM; MIC (C. albicans ATCC 90819): 3.9 µg/mL; antifungal activity in words ([2]; against all fungal strains tested): excellent antifungal activities; melting point: > 380 °C |
| C/C(=N\NC(=N)N)c1ccc(-c2ccc(/C(C)=N/NC(=N)N)cc2)cc1.Cl.Cl [Compound 4A, (2E,2′E)-2,2′-([1,1′-Biphenyl]-4,4′-diylbis(ethan-1-yl-1-ylidene))bis(hydrazine-1-carboximidamide) dihydrochloride] | > 500 | > 212 | > 500 | 6.6 | 15.6 | > 500 | > 500 | > 500 | > 500 | 18.4 | 7.8 | 4.7 to 9.2 | 2 to 3.9 | > 73.9 | 31.3 | 9.2 | 3.9 | 4.7 | 2 | 4.7 | MIC (A. baumannii ATCC 19606): > 212 µg/mL; MIC (E. cloacae ATCC 13047; converted from μM): 52.9 µg/mL; MIC (E. cloacae ATCC 13047; range 0.5 to 500 μM): 125 µM; MIC (E. coli MC1061; [16]): 26.5 µg/mL; MIC (E. coli MC1061; [17]): 62.5 µM; MIC [1]: > 212 µg/mL; MIC (M. smegmatis MC2-155; converted from μM): > 212 µg/mL; MIC (M. smegmatis MC2-155; range 0.5 to 500 μM): > 500 µM; MIC (MRSA): > 212 µg/mL; MIC (P. aeruginosa ATCC 27853; converted from μM): 0.8 µg/mL; MIC (P. aeruginosa ATCC 27853; range 0.5 to 500 μM): 2 µM; MIC (S. enterica ATCC 14028): > 212 µg/mL; MIC (VRE): > 212 µg/mL; MIC (C. albicans ATCC 1237; C. albicans ATCC 1237, resistant to FLC, dihydrochloride): >31.3 µg/mL; MIC (C. albicans ATCC 64124): 2 µg/mL; MIC (C. albicans ATCC 90819; converted from μg/mL): 9.2 µM; MIC (C. albicans ATCC 90819): 3.9 µg/mL; MIC [2]: 2 to 3.9 µg/mL |
| C/C(=N\NC(=N)N)c1ccc(Cc2ccc(/C(C)=N/NC(=N)N)cc2)cc1.Cl.Cl [Compound 4C, (2E,2′E)-2,2′-((methylenebis(4,1-phenylene))bis(ethan-1-yl-1-ylidene))bis(hydrazine-1-carboximidamide) dihydrochloride] | > 500 | > 219 | > 500 | > 219 | > 500 | 3.9 | 3.9 | > 500 | 2 | 17.8 | 7.8 | 17.8 | 7.8 | 17.8 | 7.8 | 17.8 | 7.8 | 8.9 | 3.9 | 17.8 | MIC (A. baumannii ATCC 19606; [3]): > 219 µg/mL; MIC (E. cloacae ATCC 13047; converted from μM): > 219 µg/mL; MIC (E. cloacae ATCC 13047; range 0.5 to 500 μM): > 500 µM; MIC (E. coli MC1061; [16]): > 219 µg/mL; MIC (E. coli MC1061; [17]): > 500 µM; MIC [1, 5]: 1.7 µg/mL; MIC (M. smegmatis MC2-155; converted from μM): 0.9 µg/mL; MIC (M. smegmatis MC2-155; range 0.5 to 500 μM): 2 µM; MIC (MRSA; [7]): 1.7 µg/mL; MIC (P. aeruginosa ATCC 27853; converted from μM): > 219 µg/mL; MIC (P. aeruginosa ATCC 27853; range 0.5 to 500 μM): > 500 µM; MIC (S. enterica ATCC 14028; [9]): > 219 µg/mL; MIC (VRE; [11]): 0.9 µg/mL; MIC (C. albicans ATCC 64124): 7.8 µg/mL; MIC (C. albicans ATCC 90819; converted from μg/mL): 17.8 µM; MIC (C. albicans ATCC 90819): 7.8 µg/mL; melting point: 342 to 344 °C |
